In ChEMBL document CHEMBL4359837, “Discovery of 2-(4-Chloro-3-(trifluoromethyl)phenyl)-N-(4-((6,7-dimethoxyquinolin-4-yl)oxy)phenyl)acetamide (CHMFL-KIT-64) as a Novel Orally Available Potent Inhibitor against Broad-Spectrum Mutants of c-KIT Kinase for Gastrointestinal Stromal Tumors” (J Med Chem, 2019):
The source made the active and inactive calls. No cut-off for these calls is given here.

Experiments:
[1] = system: Mast/stem cell growth factor receptor Kit (Homo sapiens), P10721 [T670I]; settings: Mus musculus
Mast/stem cell growth factor receptor Kit (Homo sapiens), P10721 [T670I], sequence (P10721 whole entry T670I): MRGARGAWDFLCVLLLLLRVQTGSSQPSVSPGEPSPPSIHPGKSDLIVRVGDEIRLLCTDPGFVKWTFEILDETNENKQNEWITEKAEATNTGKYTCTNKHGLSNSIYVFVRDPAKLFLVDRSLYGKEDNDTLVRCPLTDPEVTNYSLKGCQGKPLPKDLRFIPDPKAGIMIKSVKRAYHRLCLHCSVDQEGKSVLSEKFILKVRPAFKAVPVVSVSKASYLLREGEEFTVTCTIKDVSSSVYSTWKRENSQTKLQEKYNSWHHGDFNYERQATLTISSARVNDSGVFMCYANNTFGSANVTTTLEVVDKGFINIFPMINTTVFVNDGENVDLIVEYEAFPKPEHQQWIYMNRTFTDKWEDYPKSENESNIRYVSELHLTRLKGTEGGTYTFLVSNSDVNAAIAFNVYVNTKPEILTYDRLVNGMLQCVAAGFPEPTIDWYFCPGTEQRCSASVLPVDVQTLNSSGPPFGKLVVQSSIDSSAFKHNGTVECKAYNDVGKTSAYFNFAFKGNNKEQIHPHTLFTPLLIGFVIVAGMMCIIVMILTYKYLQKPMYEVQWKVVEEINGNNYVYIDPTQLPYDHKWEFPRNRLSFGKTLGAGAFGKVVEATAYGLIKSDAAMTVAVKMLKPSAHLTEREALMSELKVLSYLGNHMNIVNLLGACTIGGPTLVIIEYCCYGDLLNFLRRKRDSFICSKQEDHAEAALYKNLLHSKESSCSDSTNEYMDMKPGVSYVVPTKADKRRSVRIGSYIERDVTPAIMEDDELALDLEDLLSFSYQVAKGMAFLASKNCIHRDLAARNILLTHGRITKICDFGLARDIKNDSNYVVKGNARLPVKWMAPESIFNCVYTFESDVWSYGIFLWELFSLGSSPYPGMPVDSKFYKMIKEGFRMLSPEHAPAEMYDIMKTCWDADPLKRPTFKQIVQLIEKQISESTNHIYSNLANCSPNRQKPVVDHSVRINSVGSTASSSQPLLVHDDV
Description: Inhibition of c-KIT T670I mutant in mouse BAF3(transformed) cells assessed as growth inhibition after 72 hrs by CCK8 assay

[2] = target: Mast/stem cell growth factor receptor Kit (Mus musculus) (UniProt P05532); assay: Inhibition of c-KIT in mouse BAF3(transformed) cells assessed as growth inhibition after 72 hrs by CCK8 assay
Mast/stem cell growth factor receptor Kit (Mus musculus), sequence (P05532 whole entry): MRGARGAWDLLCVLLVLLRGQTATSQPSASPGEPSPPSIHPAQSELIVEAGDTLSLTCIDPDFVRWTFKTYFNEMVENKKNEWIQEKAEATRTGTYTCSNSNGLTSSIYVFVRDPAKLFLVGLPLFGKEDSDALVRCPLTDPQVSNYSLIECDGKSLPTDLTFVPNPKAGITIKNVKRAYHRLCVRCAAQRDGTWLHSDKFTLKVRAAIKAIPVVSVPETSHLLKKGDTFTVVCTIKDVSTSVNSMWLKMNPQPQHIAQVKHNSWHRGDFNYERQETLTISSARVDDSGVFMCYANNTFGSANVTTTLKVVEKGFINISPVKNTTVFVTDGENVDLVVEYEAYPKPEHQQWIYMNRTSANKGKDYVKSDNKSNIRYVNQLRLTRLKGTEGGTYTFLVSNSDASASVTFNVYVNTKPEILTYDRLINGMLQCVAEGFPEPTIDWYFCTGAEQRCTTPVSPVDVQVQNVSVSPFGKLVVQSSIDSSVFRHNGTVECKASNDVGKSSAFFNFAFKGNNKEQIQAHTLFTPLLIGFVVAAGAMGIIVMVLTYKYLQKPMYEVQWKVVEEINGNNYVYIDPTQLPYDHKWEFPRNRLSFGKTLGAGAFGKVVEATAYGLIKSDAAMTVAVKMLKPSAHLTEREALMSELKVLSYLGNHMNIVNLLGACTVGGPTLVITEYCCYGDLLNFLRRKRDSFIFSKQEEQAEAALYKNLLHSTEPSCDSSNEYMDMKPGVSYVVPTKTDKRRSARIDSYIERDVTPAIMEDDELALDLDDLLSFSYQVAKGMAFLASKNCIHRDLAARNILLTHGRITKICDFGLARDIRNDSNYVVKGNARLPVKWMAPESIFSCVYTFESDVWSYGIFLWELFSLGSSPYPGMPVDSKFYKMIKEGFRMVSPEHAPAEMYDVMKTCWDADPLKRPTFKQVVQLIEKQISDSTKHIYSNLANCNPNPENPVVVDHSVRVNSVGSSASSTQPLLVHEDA

[3] = Growth inhibition of mouse BAF3 cells measured after 72 hrs by CCK8 assay; type: cell-based
[4] = target: T1, Platelet-derived growth factor receptor alpha (Homo sapiens, UniProt P16234); type: cell-based; settings: GISTT1
T1 sequence (P16234 whole entry): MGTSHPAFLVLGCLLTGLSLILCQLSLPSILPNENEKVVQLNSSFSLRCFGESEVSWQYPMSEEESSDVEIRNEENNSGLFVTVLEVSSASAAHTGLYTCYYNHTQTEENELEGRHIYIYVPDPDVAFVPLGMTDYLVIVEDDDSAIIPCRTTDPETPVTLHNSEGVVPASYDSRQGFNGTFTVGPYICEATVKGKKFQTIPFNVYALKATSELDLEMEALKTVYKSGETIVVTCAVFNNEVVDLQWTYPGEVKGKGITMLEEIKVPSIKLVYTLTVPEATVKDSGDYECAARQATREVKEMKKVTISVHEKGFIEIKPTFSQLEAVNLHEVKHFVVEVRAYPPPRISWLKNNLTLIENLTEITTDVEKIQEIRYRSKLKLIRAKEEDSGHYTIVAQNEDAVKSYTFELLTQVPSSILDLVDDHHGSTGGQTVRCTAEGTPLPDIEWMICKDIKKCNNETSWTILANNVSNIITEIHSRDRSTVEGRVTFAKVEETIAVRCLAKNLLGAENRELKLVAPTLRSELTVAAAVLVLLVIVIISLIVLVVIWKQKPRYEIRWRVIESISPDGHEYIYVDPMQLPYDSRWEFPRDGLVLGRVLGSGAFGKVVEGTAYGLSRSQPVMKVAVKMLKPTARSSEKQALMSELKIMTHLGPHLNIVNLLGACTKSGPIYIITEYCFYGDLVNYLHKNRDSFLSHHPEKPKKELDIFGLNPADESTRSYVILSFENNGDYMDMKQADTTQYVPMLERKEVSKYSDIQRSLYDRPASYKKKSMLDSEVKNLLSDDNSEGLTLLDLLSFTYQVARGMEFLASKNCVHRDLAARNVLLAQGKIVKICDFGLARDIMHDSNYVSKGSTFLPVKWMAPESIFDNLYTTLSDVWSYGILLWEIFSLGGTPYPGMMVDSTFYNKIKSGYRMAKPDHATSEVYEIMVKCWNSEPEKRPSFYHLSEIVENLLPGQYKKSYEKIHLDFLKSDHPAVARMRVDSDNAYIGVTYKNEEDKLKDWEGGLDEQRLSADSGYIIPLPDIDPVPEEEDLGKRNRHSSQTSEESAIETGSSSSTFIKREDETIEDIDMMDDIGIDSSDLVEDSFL

[5] = target: T1, Platelet-derived growth factor receptor alpha; type: cell-based; settings: GISTT1; remark: listed apart in the source
[6] = target: T1, Platelet-derived growth factor receptor alpha; type: cell-based; settings: GISTT1; remark: listed apart in the source
GISTT1 [7] = type: functional, cell-based; settings: Homo sapiens
[8] = target: T1, Platelet-derived growth factor receptor alpha; type: cell-based; settings: GISTT1; remark: listed apart in the source
[9] = target: T1, Platelet-derived growth factor receptor alpha; type: cell-based; settings: GISTT1; remark: listed apart in the source
[10] = target: T1, Platelet-derived growth factor receptor alpha; type: cell-based; settings: GISTT1; remark: listed apart in the source
[11] = target: T1, Platelet-derived growth factor receptor alpha; type: cell-based; settings: GISTT1; remark: listed apart in the source
[12] = system: Mast/stem cell growth factor receptor Kit (Homo sapiens), P10721 [Y823D]; settings: Mus musculus
Mast/stem cell growth factor receptor Kit (Homo sapiens), P10721 [Y823D], sequence (P10721 whole entry Y823D): as the sequence (P10721 whole entry T670I) above, with I670T, Y823D counted along it
Description: Inhibition of c-KIT Y823D mutant in mouse BAF3(transformed) cells assessed as growth inhibition after 72 hrs by CCK8 assay

Mus musculus [13] = species on record: Mus musculus; assay: Inhibition of c-KIT T670I/V559D double mutant in mouse BAF3(transformed) cells assessed as growth inhibition after 72 hrs by CCK8 assay
[14] = system: Mast/stem cell growth factor receptor Kit (Homo sapiens), P10721 [V559A]; settings: Mus musculus
Mast/stem cell growth factor receptor Kit (Homo sapiens), P10721 [V559A], sequence (P10721 whole entry V559A): as the sequence (P10721 whole entry T670I) above, with V559A, I670T counted along it
Description: Inhibition of c-KIT V559A mutant in mouse BAF3(transformed) cells assessed as growth inhibition after 72 hrs by CCK8 assay

Mus musculus [15] = species on record: Mus musculus; assay: Inhibition of c-KIT D816E mutant in mouse BAF3(transformed) cells assessed as growth inhibition after 72 hrs by CCK8 assay
Mus musculus [16] = species on record: Mus musculus; assay: Inhibition of c-KIT S709F mutant in mouse BAF3(transformed) cells assessed as growth inhibition after 72 hrs by CCK8 assay
Mus musculus [17] = species on record: Mus musculus; assay: Inhibition of c-KIT V654A/V559D double mutant in mouse BAF3(transformed) cells assessed as growth inhibition after 72 hrs by CCK8 assay
[18] = system: Mast/stem cell growth factor receptor Kit (Homo sapiens), P10721 [UNDEFINED MUTATION]; settings: GISTT1
Mast/stem cell growth factor receptor Kit (Homo sapiens), P10721 [UNDEFINED MUTATION], sequence (P10721 whole entry, looked up, change not shown): as the sequence (P10721 whole entry T670I) above, with I670T counted along it
Description: Inhibition of c-KIT 560 to 578 deletion mutant in human GISTT1 cells assessed as growth inhibition after 72 hrs by CCK8 assay

[19] = Growth inhibition of human GIST48B cells after 72 hrs by CCK8 assay; type: functional
[20] = system: Mast/stem cell growth factor receptor Kit (Homo sapiens), P10721 [V559G]; settings: Mus musculus
Mast/stem cell growth factor receptor Kit (Homo sapiens), P10721 [V559G], sequence (P10721 whole entry V559G): as the sequence (P10721 whole entry T670I) above, with V559G, I670T counted along it
Description: Inhibition of c-KIT V559G mutant in mouse BAF3(transformed) cells assessed as growth inhibition after 72 hrs by CCK8 assay

Mus musculus [21] = species on record: Mus musculus; assay: Inhibition of c-KIT D820G mutant in mouse BAF3(transformed) cells assessed as growth inhibition after 72 hrs by CCK8 assay
[22] = system: Mast/stem cell growth factor receptor Kit (Homo sapiens), P10721 [D820Y]; settings: Mus musculus
Mast/stem cell growth factor receptor Kit (Homo sapiens), P10721 [D820Y], sequence (P10721 whole entry D820Y): as the sequence (P10721 whole entry T670I) above, with I670T, D820Y counted along it
Description: Inhibition of c-KIT D820Y mutant in mouse BAF3(transformed) cells assessed as growth inhibition after 72 hrs by CCK8 assay

[23] = system: Mast/stem cell growth factor receptor Kit (Homo sapiens), P10721 [K642E]
Mast/stem cell growth factor receptor Kit (Homo sapiens), P10721 [K642E], sequence (P10721 whole entry K642E): as the sequence (P10721 whole entry T670I) above, with K642E, I670T counted along it

GISTT1 [24] = type: functional, Homo sapiens
Mus musculus [25] = species on record: Mus musculus; assay: Inhibition of c-KIT T670E mutant in mouse BAF3(transformed) cells assessed as growth inhibition after 72 hrs by CCK8 assay
GISTT1 [26] = type: functional, Homo sapiens; settings: Mus musculus, GISTT1, po, 672 h; read-out: TGI

Structure (SMILES)	GI50 [1] [nM]	GI50 [2] [nM]	GI50 at 72 h [3] [nM]	also measured
COc1cc2nccc(Nc3ccc(NC(=O)Cc4ccc(Cl)c(C(F)(F)F)c4)cc3)c2cc1OC	400	742	2210	–
COc1cc2nccc(Oc3ccc(C(=O)NCc4cccc(C(F)(F)F)c4)cc3)c2cc1OC	4610	2350	10000	–
COc1cccc(CC(=O)Nc2ccc(Oc3ccnc4cc(OC)c(OC)cc34)cc2)c1	339	293	2780	–
COc1cc2nccc(Oc3ccc(NC(=O)C4(c5ccccc5)CC4)cc3)c2cc1OC	> 10000	> 10000	> 10000	–
COc1cc2nccc(Oc3ccc(NC(=O)Cc4ccc(C)c(C(F)(F)F)c4)cc3)c2cc1OC	14	17	7260	–
COc1cc2nccc(Oc3ccc(NC(=O)Cc4ccc(Cl)c(C(F)(F)F)c4)cc3F)c2cc1OC	21	116	1990	–
COc1cc2nccc(Oc3ccc(NC(=O)Cc4ccc(F)c(C(F)(F)F)c4)cc3)c2cc1OC	13	24	1030	–
COc1cc2nccc(Oc3ccc(NC(=O)Cc4cccc(F)c4)cc3)c2cc1OC	342	923	1000	–
CCC(=O)NCC1CCN(c2ccc(NC(=O)Nc3cccc(Oc4ccnc5cc(OC)c(OC)cc45)c3)cc2C(F)(F)F)CC1	–	57	> 10000	–
COc1cc2nccc(Oc3ccc(NC(=O)CC4CCCCC4)cc3)c2cc1OC	362	635	2470	–
COc1cc2nccc(Oc3ccc(NC(=O)Cc4ccc(C(F)(F)F)cc4)cc3)c2cc1OC	11	22	2160	–
COc1cc2nccc(Oc3ccc(NC(=O)CN4CCN(C)CC4)cc3)c2cc1OC	8520	7330	8700	–
COc1cc2nccc(Oc3ccc(NC(=O)Cc4ccccc4C(F)(F)F)cc3)c2cc1OC	309	424	6700	–
COc1cc2nccc(Oc3ccc(NC(=O)Cc4ccc(Cl)c(C(F)(F)F)c4)cc3C(F)(F)F)c2cc1OC	2840	3000	2920	–
COc1ccc(CC(=O)Nc2ccc(Oc3ccnc4cc(OC)c(OC)cc34)cc2)cc1OC	179	319	4130	–
COc1cc2nccc(Oc3ccc(NC(=O)Cc4ccc5c(c4)OCO5)cc3)c2cc1OC	167	110	3100	–
COc1cc2nccc(Oc3ccc(NC(=O)Cc4ccc(C)c(C)c4)cc3)c2cc1OC	15	27	6420	–
COc1cc2nccc(Oc3ccc(NC(=O)Cc4ccc5ccccc5c4)cc3)c2cc1OC	34	112	6230	–
COc1cc2nccc(Oc3ccc(NC(=O)Cc4ccc(Cl)c(Cl)c4)cc3)c2cc1OC	37	342	2030	–

Structure (SMILES)	GI50 [1] [nM]	GI50 [2] [nM]	GI50 at 72 h [3] [nM]	also measured
COc1cc2nccc(Oc3ccc(NC(=O)Cc4ccncc4)cc3)c2cc1OC	6990	4710	5130	–
Cc1ccc(NC(=O)c2ccc(CN(CCN(C)C)C(=O)c3ccccn3)cc2)cc1Nc1nccc(-c2cccnc2)n1	–	–	–	inhibition [4]: Active; inhibition [5]: Active; inhibition [6]: Active; Activity (GISTT1 [7]): Active; inhibition [8]: Active; inhibition [9]: Active; inhibition [10]: Active; inhibition [11]: Active
COc1cc2nccc(Oc3ccc(NC(=O)Cc4ccc(F)c(F)c4)cc3)c2cc1OC	309	312	670	–
COc1cc2nccc(Oc3ccc(NC(=O)Cc4ccc(Cl)c(C(F)(F)F)c4)c(Cl)c3)c2cc1OC	70	81	8220	–
COc1cc2nccc(Oc3ccc(NC(=O)Cc4ccc(Cl)c(C(F)(F)F)c4)c(C)c3)c2cc1OC	75	61	4860	–
COc1cc2nccc(Oc3ccc(NC(=O)Cc4ccccc4)cc3)c2cc1OC	> 10000	> 10000	> 10000	–
COc1cc2nccc(Sc3ccc(NC(=O)Cc4ccc(Cl)c(C(F)(F)F)c4)cc3)c2cc1OC	110	154	3090	–
COc1cc2nccc(Oc3ccc(NC(=O)Cc4ccc(Cl)c(C(F)(F)F)c4)cc3C#N)c2cc1OC	210	989	9970	–
COc1cc2nccc(Oc3ccc(NC(=O)Cc4cccc(C(F)(F)F)c4)cc3)c2cc1OC	1	20	1890	–
COc1cc2nccc(N(C)c3ccc(NC(=O)Cc4ccc(Cl)c(C(F)(F)F)c4)cc3)c2cc1OC	8460	4280	2670	–
COc1cc2nccc(Oc3ccc(NC(=O)Cc4ccc(F)cc4F)cc3)c2cc1OC	285	40	704	–
COc1cc2nccc(Oc3ccc(NC(=O)Cc4ccc(Cl)c(C(F)(F)F)c4)cc3C)c2cc1OC	9	105	7050	–
COc1cc2nccc(Oc3ccc(C(=O)NCc4ccc(C(F)(F)F)cc4)cc3)c2cc1OC	668	2900	6180	–
COc1cc2nccc(Oc3ccc(NC(=O)Cc4ccc(Cl)c(C(F)(F)F)c4)cc3OC)c2cc1OC	1560	34	8480	–
COc1cc2nccc(Oc3ccc(NC(=O)Cc4ccc(Cl)c(C(F)(F)F)c4)cc3Cl)c2cc1OC	56	78	9450	–
Cc1ccc(NC(=O)c2ccc(CN3CCN(C)CC3)cc2)cc1Nc1nccc(-c2cccnc2)n1 [IMATINIB]	–	350	> 10000	GI50 [12]: 5870 nM; GI50 (Mus musculus [13]): > 10000 nM; GI50 [14]: 905 nM; GI50 (Mus musculus [15]): 174 nM; GI50 (Mus musculus [16]): 115 nM; GI50 (Mus musculus [17]): 608 nM; GI50 [18]: 15 nM; GI50 [19]: > 10000 nM; GI50 [20]: 8 nM; GI50 (Mus musculus [21]): 337 nM; GI50 [22]: 435 nM; GI50 [23]: 48 nM; Activity (GISTT1 [7]): Active; Activity (GISTT1 [24]): 1.54 g; GI50 (Mus musculus [25]): 4080 nM; inhibition in vivo at 100 mg/kg/day (GISTT1 [26]): 66.4%
COc1cc2nccc(Oc3ccc(NC(=O)Cc4ccc(Cl)c(C(F)(F)F)c4)c(F)c3)c2cc1OC	18	49	3210	–
COc1cc2nccc(Oc3ccc(NC(=O)Cc4c(F)cccc4F)cc3)c2cc1OC	1700	2780	1930	–
